Experimental data reported in patent US12128028B2, “Heterocyclic sulfonamide derivatives and pharmaceutical uses thereof” (METRION BIOSCIENCES LIMITED, priority 2018, dated 2024).

Target: human Kv1.3 (Homo sapiens (Human), UniProt P22001)
Assay: Kv1.3 potency evaluation, automated patch clamp electrophysiology (QPatch HT) in CHO-Kv1.3 cells
Assay type: cell-based
Conditions: whole-cell QPatch HT, % inhibition of charge, step to +30 mV, four concentrations, N≥3 cells, read-out: hKv1.3 IC50
Procedure, shortened: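 Automated whole-cell patch clamp in CHO cells stably expressing human Kv1.3; steps from −80 to +30 mV (500 ms) at 0.067 Hz. Four cumulative concentrations after vehicle (0.1-0.3% DMSO); charge inhibition vs vehicle fitted by four-parameter logistic for IC50, N≥3 cells.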

human Kv1.3, sequence (P22001 whole entry): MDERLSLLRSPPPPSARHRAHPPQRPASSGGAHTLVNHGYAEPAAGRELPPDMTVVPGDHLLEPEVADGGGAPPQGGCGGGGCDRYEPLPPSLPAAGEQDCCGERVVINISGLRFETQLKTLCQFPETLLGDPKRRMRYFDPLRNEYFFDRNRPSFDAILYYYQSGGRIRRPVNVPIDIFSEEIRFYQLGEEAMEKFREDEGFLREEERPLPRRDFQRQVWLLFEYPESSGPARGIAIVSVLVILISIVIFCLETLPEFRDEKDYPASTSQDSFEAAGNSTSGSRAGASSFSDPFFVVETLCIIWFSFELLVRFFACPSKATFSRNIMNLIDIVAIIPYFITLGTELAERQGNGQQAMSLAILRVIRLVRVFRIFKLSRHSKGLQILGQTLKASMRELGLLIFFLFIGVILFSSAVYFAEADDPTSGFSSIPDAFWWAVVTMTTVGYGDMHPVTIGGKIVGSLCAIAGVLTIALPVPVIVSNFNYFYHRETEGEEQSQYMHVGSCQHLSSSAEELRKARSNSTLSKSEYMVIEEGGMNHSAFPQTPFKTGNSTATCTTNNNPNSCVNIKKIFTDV

First: CC1(C)N=C(C23CC(N(Cc4ccc(C(F)(F)F)cc4)S(=O)(=O)c4ccc(F)cc4)(C2)C3)N[C@@H]1C(=O)NCCC(F)(F)F (mixture of isomers) [Example 251]
Second: CC1(C)N=C(C23CC(N(Cc4ccc(Cl)cc4)S(=O)(=O)c4cccc(C(F)(F)F)c4)(C2)C3)N[C@H]1C(=O)NCCC(F)(F)F (mixture of isomers) [Example 152]
The IC50 of the first is 3.4-fold higher: 307 nM for the first, 91 nM for the second.

Going from `CC1(C)N=C(C23CC(N(Cc4ccc(Cl)cc4)S(=O)(=O)C4CCOCC4)(C2)C3)N[C@H]1C(=O)NCCC(F)(F)F` (mixture of isomers) [Example 272] to `CC1(C)N=C(C23CC(N(Cc4ccc(Cl)cc4)S(=O)(=O)C4CCC4)(C2)C3)N[C@H]1C(=O)NCCC(F)(F)F` (mixture of isomers) [Example 170], the IC50 falls from 524 nM to 101 nM (5.2-fold). The second is the more potent here.

First: CC1(C)N=C(C23CC(N(Cc4ccc(Cl)cc4)S(=O)(=O)CC4CCC4)(C2)C3)N[C@H]1C(=O)NCCC(F)(F)F (mixture of isomers) [Example 105]
Second: CC1(C)N=C(C23CC(N(Cc4ccc(Cl)cc4)S(=O)(=O)C4CCCCC4)(C2)C3)N[C@H]1C(=O)NCCC(F)(F)F (mixture of isomers) [Example 42]
The IC50 of the first is 1.5-fold higher: 69 nM for the first, 46 nM for the second. The second is the more potent here.

First: CN(C(=O)[C@@H]1NC(C23CC(N(Cc4ccc(Cl)c(F)c4)S(=O)(=O)c4ccccc4)(C2)C3)=NC1(C)C)C12CC(C1)C2 (mixture of isomers) [Example 33]
Second: CC1(C)N=C(C23CC(N(Cc4ccc(Cl)c(F)c4)S(=O)(=O)c4ccccc4)(C2)C3)N[C@@H]1C(=O)NCC1CC(F)(F)C1 (mixture of isomers) [Example 135]
The IC50 of the first is 1.9-fold lower: 43 nM for the first, 81 nM for the second. The first is the more potent here.

Compared with `CC1(C)N=C(C23CC(N(Cc4ccc(Cl)c(F)c4)S(=O)(=O)c4ccccc4)(C2)C3)N[C@H]1C(=O)NCC(F)(F)F` (mixture of isomers) [Example 140], `CCCNC(=O)[C@@H]1NC(C23CC(N(Cc4ccc(Cl)c(F)c4)S(=O)(=O)c4ccccc4)(C2)C3)=NC1(C)C` (mixture of isomers) [Example 19] is 2.3-fold lower in IC50: 84 nM for the first, 37 nM for the second. The second is the more potent here.

Going from `CC1(C)N=C(C23CC(N(Cc4ccc(Cl)c(F)c4)S(=O)(=O)c4ccccc4)(C2)C3)N[C@H]1C(=O)N1CC2(CCC2)C1` (mixture of isomers) [Example 87] to `CC1(C)N=C(C23CC(N(Cc4ccc(Cl)c(F)c4)S(=O)(=O)c4ccccc4)(C2)C3)N[C@H]1C(=O)N1CC2(CCC2(F)F)C1` (mixture of isomers) [Example 249], the IC50 rises from 63 nM to 280 nM (4.4-fold). The first is the more potent here.

`CC1(C)N=C(C23CC(N(Cc4ccc(Cl)c(F)c4)S(=O)(=O)c4ccccc4)(C2)C3)N[C@H]1C(=O)NC1CC(C(F)F)C1` (mixture of isomers) [Example 89] and `CC1(C)N=C(C23CC(N(Cc4ccc(Cl)c(F)c4)S(=O)(=O)c4ccccc4)(C2)C3)N[C@H]1C(=O)NC1CC1C(F)(F)F` (mixture of isomers) [Example 75] are within 1.5-fold of each other in IC50: 63 nM for the first, 59 nM for the second.

`CC1(C)N=C(C23CC(N(Cc4ccc(Cl)c(Cl)c4)S(=O)(=O)c4ccccc4)(C2)C3)N[C@H]1C(=O)N1CCC(F)(F)CC1` (mixture of isomers) [Example 86] and `CC1(C)N=C(C23CC(N(Cc4ccc(Cl)c(F)c4)S(=O)(=O)c4ccccc4)(C2)C3)N[C@H]1C(=O)N1CCCC(F)(F)CC1` (mixture of isomers) [Example 131] are within 1.5-fold of each other in IC50: 62 nM for the first, 78 nM for the second.

First: CC1(C)N=C(C23CC(N(Cc4ccc(C(F)(F)F)c(F)c4)S(=O)(=O)c4ccccc4)(C2)C3)N[C@H]1C(=O)NCCC(F)(F)F (mixture of isomers) [Example 197]
Second: CC1(C)N=C(C23CC(N(Cc4ccc(F)cc4)S(=O)(=O)c4ccccc4)(C2)C3)N[C@H]1C(=O)NCCC(F)(F)F (mixture of isomers) [Example 23]
The IC50 of the first is 3.1-fold higher: 126 nM for the first, 40 nM for the second. The second is the more potent here.

Going from `O=C(NCC1CCC1)C1NC(C23CC(N(Cc4ccc(C(F)(F)F)cc4)S(=O)(=O)c4ccc(F)cc4)(C2)C3)=NC12CC2` (stereo not shown) [Example 239] to `CC1(C)N=C(C23CC(N(Cc4ccc(C(F)(F)F)cc4)S(=O)(=O)c4ccc(F)cc4)(C2)C3)NC1C(=O)NCC1(O)CCC1` (stereo not shown) [Example 271], the IC50 rises from 230 nM to 494 nM (2.1-fold). The first is the more potent here.

`CCCS(=O)(=O)N(Cc1ccc(Cl)c(Cl)c1)C12CC(C3=NC(C)(C)[C@H](C(=O)NCC4(C(F)(F)F)CC4)N3)(C1)C2` (mixture of isomers) [Example 143] and `CC(C)(F)CNC(=O)[C@@H]1NC(C23CC(N(Cc4ccc(Cl)c(Cl)c4)S(=O)(=O)CCC(C)(F)F)(C2)C3)=NC1(C)C` (mixture of isomers) [Example 159] are within 1.5-fold of each other in IC50: 85 nM for the first, 95 nM for the second.

`CC1(C)N=C(C23CC(N(Cc4ccc(Cl)cc4)S(=O)(=O)c4cccnc4)(C2)C3)N[C@H]1C(=O)NCCC(F)(F)F` (mixture of isomers) [Example 110] and `CC1(C)N=C(C23CC(N(Cc4ccc(Cl)cc4)S(=O)(=O)c4cccc(Cl)c4)(C2)C3)N[C@H]1C(=O)NCCC(F)(F)F` (mixture of isomers) [Example 52] are within 1.5-fold of each other in IC50: 72 nM for the first, 49 nM for the second.

First: CC1(C)N=C(C23CC(N(Cc4ccc(Cl)c(C#N)c4)S(=O)(=O)c4ccccc4)(C2)C3)N[C@H]1C(=O)NCCC(F)(F)F (mixture of isomers) [Example 223]
Second: CC1(C)N=C(C23CC(N(Cc4cccc(Cl)c4)S(=O)(=O)c4ccccc4)(C2)C3)N[C@H]1C(=O)NCCC(F)(F)F (mixture of isomers) [Example 16]
The IC50 of the first is 5.1-fold higher: 177 nM for the first, 35 nM for the second.

First: CC1(C)N=C(C23CC(N(Cc4ccc(C(F)(F)F)cc4)S(=O)(=O)c4ccc(F)cc4)(C2)C3)N[C@H]1C(=O)NCC1(F)CCC1 [Example 145]
Second: CC1(CNC(=O)[C@@]2(C)CN=C(C34CC(N(Cc5ccc(C(F)(F)F)cc5)S(=O)(=O)c5ccc(F)cc5)(C3)C4)N2)CCC1 (mixture of isomers) [Example 267]
The IC50 of the first is 4.8-fold lower: 88 nM for the first, 424 nM for the second.

`CC1(C)N=C(C23CC(N(Cc4ccc(Cl)c(Cl)c4)S(=O)(=O)c4ccccc4)(C2)C3)N[C@H]1C(=O)N1CCC12CC(F)(F)C2` (mixture of isomers) [Example 134] and `CC1(C)N=C(C23CC(N(Cc4ccc(Cl)c(Cl)c4)S(=O)(=O)c4ccccc4)(C2)C3)N[C@H]1C(=O)NC1CC(F)(F)C1` (mixture of isomers) [Example 115] are within 1.5-fold of each other in IC50: 79 nM for the first, 73 nM for the second.

Going from `CC1(C)N=C(C23CC(N(Cc4ccc(Cl)cc4)S(=O)(=O)CCCC(F)(F)F)(C2)C3)N[C@H]1C(=O)NCCC(F)(F)F` (mixture of isomers) [Example 206] to `CCCCS(=O)(=O)N(Cc1ccc(Cl)cc1)C12CC(C3=NC(C)(C)[C@H](C(=O)NCCC(F)(F)F)N3)(C1)C2` (mixture of isomers) [Example 10], the IC50 falls from 137 nM to 28 nM (4.9-fold).

Going from `COCCS(=O)(=O)N(Cc1ccc(Cl)cc1)C12CC(C3=NC(C)(C)[C@H](C(=O)NCCC(F)(F)F)N3)(C1)C2` (mixture of isomers) [Example 261] to `CC1(C)N=C(C23CC(N(Cc4ccc(Cl)cc4)S(=O)(=O)CCCCF)(C2)C3)N[C@H]1C(=O)NCCC(F)(F)F` (mixture of isomers) [Example 102], the IC50 falls from 386 nM to 68 nM (5.7-fold). The second is the more potent here.

First: CC1(C)N=C(C23CC(N(Cc4ccc(Cl)cc4)S(=O)(=O)c4ccccc4O)(C2)C3)N[C@H]1C(=O)NCCC(F)(F)F (mixture of isomers) [Example 180]
Second: CC1(C)N=C(C23CC(N(Cc4ccc(Cl)cc4)S(=O)(=O)c4ccccc4C(N)=O)(C2)C3)N[C@H]1C(=O)NCCC(F)(F)F (mixture of isomers) [Example 292]
The IC50 of the first is 28-fold lower: 106 nM for the first, 2950 nM for the second. The first is the more potent here.

First: C[C@]1(C(=O)Nc2ccccc2)CN=C(C23CC(N(Cc4ccc(C(F)(F)F)cc4)S(=O)(=O)c4ccc(F)cc4)(C2)C3)N1 (mixture of isomers) [Example 293]
Second: CCCC1(C(=O)NC(C)C)CN=C(C23CC(N(Cc4ccc(C(F)(F)F)cc4)S(=O)(=O)c4ccc(F)cc4)(C2)C3)N1 (stereo not shown) [Example 182]
The IC50 of the first is 38-fold higher: 4080 nM for the first, 108 nM for the second. The second is the more potent here.

`CN(CCC(F)(F)F)C(=O)[C@@H]1NC(C23CC(N(Cc4ccc(Cl)c(Cl)c4)S(=O)(=O)CCC(C)(F)F)(C2)C3)=NC1(C)C` (mixture of isomers) [Example 117] and `CC(F)(F)CCS(=O)(=O)N(Cc1ccc(Cl)c(Cl)c1)C12CC(C3=NC(C)(C)[C@H](C(=O)NCCC(F)(F)F)N3)(C1)C2` (mixture of isomers) [Example 150] are within 1.5-fold of each other in IC50: 73 nM for the first, 90 nM for the second.

First: CCN(CCC(F)(F)F)C(=O)[C@@H]1NC(C23CC(N(Cc4ccc(Cl)c(F)c4)S(=O)(=O)c4ccccc4)(C2)C3)=NC1(C)C (mixture of isomers) [Example 100]
Second: CC1(C)N=C(C23CC(N(Cc4ccc(Cl)c(F)c4)S(=O)(=O)c4ccccc4)(C2)C3)N[C@H]1C(=O)NC12CC(C(F)(F)F)(C1)C2 (mixture of isomers) [Example 242]
The IC50 of the first is 3.7-fold lower: 67 nM for the first, 248 nM for the second.

Going from `CC1(C)N=C(C23CC(N(Cc4ccc(Cl)c(Cl)c4)S(=O)(=O)c4ccccc4)(C2)C3)N[C@H]1C(=O)NCC(F)(F)C(F)(F)F` [Example 5] to `CC1(C)N=C(C23CC(N(Cc4ccc(C(F)F)cc4)S(=O)(=O)c4ccccc4)(C2)C3)N[C@H]1C(=O)NCCC(F)(F)F` (mixture of isomers) [Example 122], the IC50 falls from 138 nM to 75 nM (1.8-fold). The second is the more potent here.

`CC1(C)N=C(C23CC(N(Cc4ccc(Cl)c(F)c4)S(=O)(=O)c4ccccc4)(C2)C3)N[C@H]1C(=O)N1CCC(F)CC1` (mixture of isomers) [Example 124] and `CC1(C)N=C(C23CC(N(Cc4ccc(Cl)c(F)c4)S(=O)(=O)c4ccccc4)(C2)C3)N[C@H]1C(=O)NC1CC(C(F)F)C1` (mixture of isomers) [Example 84] are within 1.5-fold of each other in IC50: 75 nM for the first, 61 nM for the second.

`CN(C(=O)[C@@H]1NC(C23CC(N(Cc4ccc(Cl)c(Cl)c4)S(=O)(=O)c4ccccc4)(C2)C3)=NC1(C)C)C1CC(C(F)F)C1` (mixture of isomers) [Example 120] and `CC1(C)N=C(C23CC(N(Cc4ccc(Cl)cc4)S(=O)(=O)c4ccccc4)(C2)C3)N[C@H]1C(=O)NCc1c(F)cc(F)cc1F` (mixture of isomers) [Example 154] are within 1.5-fold of each other in IC50: 74 nM for the first, 91 nM for the second.

With `CC1(C)N=C(C23CC(N(Cc4ccc(Cl)c(Cl)c4)S(=O)(=O)CCC(F)F)(C2)C3)N[C@H]1C(=O)NCC1CC(F)(F)C1` (mixture of isomers) [Example 205] the IC50 was 136 nM.
